For series [1], the system named is rats. Nature of the series: Study 5: 1H/19F NMR correlation study of urine from rats dosed with 3-fluoroaniline. In kind it is in vivo, rat. The note with it: 50 mg/kg, negative covariance with 19F δ-128.4 resonance. On the procedure:
A number of rats were dosed with 3-fluoroaniline (3-FA) at 50 mg/kg. Urine samples were collected over dry ice (i) pre-dose, (ii) after 0-24 hours, and (iii) after 24-48 hours. ^1H NMR and ^1H-decoupled ^19F NMR spectra were collected. The collection of ^1H NMR spectra was treated as a first data set (i.e., a matrix with one row for each ^1H NMR spectrum, and one column for each ^1H NMR chemical shift variable, n x p) and the collection of ^19F-NMR spectra was treated as a second data set (i.e., a matrix with one row for each ^19F NMR spectrum, and one column for each ^19F NMR chemical shift variable, n×q). The correlation matrix and the covariance matrix (each p×q or q×p) were calculated.
This resonance was selected for the correlation study.
As mentioned above, the correlation matrix and the covariance matrix (each p×q or q×p) were calculated. The correlation between the selected variable (^19F δ-128.4) of the first data set and all of the variables of the second data set (i.e., the range of ^1H δ) is given in the column/row of the correlation matrix associated with this variable (i.e., the column/row for ^19F δ-128.4). The covariance between this variable (^19F δ-128.4) and all of the variables of the second data set (i.e., the range of ^1H δ) is given in the column/row of the covariance matrix associated with this variable (i.e., the column/row for ^19F δ-128.4). […]

Series [2] relates to rats. Nature of the series: Study 7: 1H NMR / UPLC-MS correlation study of urine from rats dosed with hydrazine. The format is in vivo, rat. The note with it: hydrazine poisoning. On the procedure: A number of rats were dosed with hydrazine. Urine samples were collected. ^1H NMR and mass spectra were recorded for each sample. (Note that the mass spectra were recorded using an UPLC-MS experiment, in which individual mass spectra are recorded as function of elution time, here over a period of six minutes with a water-acetonitrile gradient; however, for the present study, these spectra were “summed” in order to present a single mass spectrum for each sample. This gives, in effect, “virtual direct injection mass spectra.” This is a known approach for improving MS detection in complex mixtures.)
The collection of ^1H NMR spectra was treated as a first data set (i.e., a matrix with one row for each ^1H NMR spectrum, and one column for each ^1H NMR chemical shift variable, n×p) and the collection of mass spectra was treated as a second data set (i.e., a matrix with one row for each mass spectrum, and one column for each m/z variable, n×q). The correlation matrix and the covariance matrix (each p×q or q×p) were calculated. A correlation map illustrating a part of the correlation matrix, as a function of both ^1H chemical shift (from about δ 2 to about δ 4.5) and m/z (from about 100 to about 350), is shown in FIG. 21. The correlation is indicated by colour (blue is negative correlation and red is positive correlation). A “summed” ^1H NMR spectrum is shown alongside the ^1H δ axis for illustration. Similarly, a “summed” mass spectrum is shown alongside the m/z axis for illustration.
A correlation map illustrating another (very small) part of the correlation matrix is shown in FIG. 22, specifically for ^1H chemical shift from about δ 8.8 to about δ 9.3 and m/z from about 80 to about 200. Again, a “summed” ^1H NMR spectrum is shown alongside the ^1H δ axis for illustration. Similarly, a “summed” mass spectrum is shown alongside the m/z axis for illustration. […] As expected, the mass spectrum peak at m/z 138 (for NMNA) is highly correlated with the ^1H NMR peaks at about δ 9.12 about δ 8.84 (also for NMNA). […]

For series [3], the system named is rats. The note with it: hydrazine poisoning; stated as well known; cited from earlier work.

For `Nc1cccc(F)c1` [3-fluoroaniline], the “effect on endogenous hippurate level in urine” value with rats [1] is “reduces the amount of hippurate”.
For `NN` [hydrazine], the “change in urinary creatine” value with rats [2] (m/z 90, 116) is given as “increased”. The “change in urinary 2-aminoadipate” value in the series on rats [2] (m/z 98, 116) is “increased”. Further, in the series with rats [2] (m/z 105, 180), the “change in urinary hippurate” value was “decreased”. Also, in the series with rats [3], the “change in N-methylnicotinamide (NMND)” value is “increase” and the “change in N-methylnicotinic acid (NMNA)” value was “decrease”.
